# Reference: patent US8961930B2, “Isatin derivatives for use as in vivo imaging agents” (Imperial Innovations Limited, priority 2008, dated 2015)
# Key:
# [1] = system: RIF-1 xenograft; assay: In vivo [^18F]11 biodistribution and PET imaging, RIF-1 xenograft; parameters: species or system mice; details: for 60 min biodistribution, Bone / 60 min biodistribution, Kidney / 60 min biodistribution, L. Intestine / 60 min biodistribution, Liver / 60 min biodistribution, Lung / 60 min biodistribution, Muscle / 60 min biodistribution, S. Intestine / 60 min biodistribution, Spleen / 60 min biodistribution, Tumour: RIF-1
# Excerpt: In vivo tumour models were established by subcutaneous injection of PEO1/4 (10×10^6 cells, with v/v matrigel, BD Biosciences, Oxford, UK), RIF-1 (5×10^5 cells) and LNM35 (1×10^6 cells) on the back of 6-8 weeks old female nu/nu-BALB/c or male C3H/hej mice (Harlan, Bicester, Oxfordshire, UK). Tumour growth was monitored every two days using electronic callipers, and tumour volume estimated using (π/6)×L×W×D (L=length, W=width and D=depth). All animal work was done by licensed investigators in accordance with the United Kingdom's “Guidance on the Operation of Animals (Scientific Procedures) Act 1986” (HMSO, London, United Kingdom, 1990) and in full compliance with government regulations and guidelines on the welfare of animals in experimental neoplasia.
# For biodistribution studies, tumour-bearing mice were treated with 10 mg/kg cisplatin or vehicle for 24 h, anesthetized with isofluorane/O2/N2O and injected i.v. in the lateral tail vein with ˜100 μCi [^18F]11 for the indicated time. The different tissues were removed, weighted and placed in counting tubes for immediate Fluorine-18 radioactivity counting.
# Tumour-bearing mice treated with Cisplatin (10 mg/kg for 24 h) or vehicle were scanned on a dedicated small animal PET scanner (quad-HIDAC; Oxford Positron Systems, Weston-on-the-Green, United Kingdom). Anesthetized animals were placed within a thermostatically controlled bed and positioned prone within the scanner. The bed was calibrated to provide a mouse rectal temperature of ˜37° C. A bolus injection of [^18F]11 (˜100 μCi) was given intravenously (i.v.) via the tail vein cannula and scanning commenced. Dynamic emission scans were acquired in list-mode format over 60 minutes. The acquired data were then sorted into 0.5-mm sinogram bins and 19 time frames (0.5×0.5×0.5 mm voxels; 4×15, 4×60, and 11×300 seconds) for image reconstruction, which was done by filtered back projection using a two-dimensional Hamming filter (cutoff 0.6). The image data-sets obtained were transferred to a SUN workstation (Ultra 10; SUN Microsystems, Santa Clara, Calif.) and visualized using the Analyze software (version 6.0; Biomedical Imaging Resource, Mayo Clinic, Rochester, Minn.). Cumulative images of the dynamic data composed of 0 to 1 minute after injection and 30 to 60 minutes after injection were used for visualization of radiotracer uptake and to define the regions of interest (ROI). The count densities were averaged for each ROI at each of the 19 time points to obtain a time versus radioactivity curve (TAC) for the ROIs. Tumour TAC was normalized to that of heart at each of the time points to obtain the normalized uptake value (NUV). The [^18F]9 data from […] were used as internal input function for normalizing tumour data. […] FRT is a useful variable in that it indicates the proportion of radiotracer delivered to the tumour that is retained. It therefore normalizes tumor [^18F]9 uptake to delivery.
# RIF-1 tumor was treated with vehicle (50% DMSO) or CDDP (10 mg/kg single dose). The [^18F]-derived radioactivity levels at 60 min post radiotracer injection were analysed and expressed as a ratio to that of blood. […] 1.5-fold increase in uptake of [^18F]11 for treated mice over vehicle treated mice. Data are mean±SEM and n=8 mice per group.
# [2] = system: 38C13 murine lymphoma xenograft; assay: Biodistribution of [^18F]11 in 38C13 xenograft-bearing mice after PET scan; assay type: in vivo, C3H/hej mice; parameters: Biodistribution, Lung: unit not given here
# Experimental: The in vivo experimental model of tumour apoptosis was established by subcutaneous injection of 38C13 murine lymphoma cells (5000 cells) on the back of 6-8 weeks old male C3H/hej mice (Harlan, Bicester, Oxfordshire, UK). When xenografts reached ˜100 mm3, the mice were treated with cyclophosphamide (CPA, 100 mg/kg) or vehicle for 24 h and then scanned on a dedicated small animal PET scanner (Siemens Inveon PET module). Anesthetized animals were placed within a thermostatically controlled bed and positioned prone within the scanner. A bolus injection of [^18F]11 (˜100 μCi) was given intravenously (i.v.) via the tail vein cannula and scanning commenced.
# Dynamic emission scans were acquired in list-mode format over 60 minutes. The acquired data were then sorted into 0.5-mm sinogram bins and 19 time frames for image reconstruction, which was done by filtered back projection. The image data-sets obtained were visualized using the Siemens Inveon Research Workplace software. Cumulative images of the dynamic data were used for visualization of radiotracer uptake and to define the regions of interest (ROI). The count densities were averaged for each ROI at each of the 19 time points to obtain a time versus radioactivity curve (TAC) for the ROIs (see FIG. 15).
# Tumour TAC was normalized to that of whole body at each of the time points to obtain the normalized uptake value (NUV).
# After the scan, the different tissues were removed, weighted and placed in tubes for immediate Fluorine-18 radioactivity counting to assess the [^18F]11 biodistribution (See Table 4, below).
smiles,measurement,setting,value
"O=C1C(=O)N(Cc2cn(CC[18F])nn2)c2ccc(S(=O)(=O)N3CCC[C@H]3COc3ccc(F)cc3F)cc21 [[^18F]11, (S)-1-((1-(2-Fluoroethyl)-1H-[1,2,3]-triazol-4-yl)methyl)-5-(2(2,4-difluorophenoxymethyl)-pyrrolidine-1-sulfonyl)isatin]","60 min biodistribution, Bone",[1]; CDDP treated,1.78 ± 1.72
same,"60 min biodistribution, Bone",[1]; Control,1.06 ± 0.49
same,PET image: uptake in the tumour,"[1]; CDDP-treated mouse, RIF-1 xenograft, 30-60 min",significant uptake
same,"60 min biodistribution, Kidney",[1]; CDDP treated,5.50 ± 2.59
same,"60 min biodistribution, Kidney",[1]; Control,8.49 ± 2.00
same,"60 min biodistribution, L. Intestine",[1]; CDDP treated,2.88 ± 1.52
same,"60 min biodistribution, L. Intestine",[1]; Control,2.66 ± 0.67
same,"60 min biodistribution, Liver",[1]; CDDP treated,10.58 ± 4.64
same,"60 min biodistribution, Liver",[1]; Control,11.36 ± 2.39
same,"60 min biodistribution, Lung",[1]; CDDP treated,3.23 ± 0.43
same,"60 min biodistribution, Lung",[1]; Control,4.47 ± 1.00
same,"60 min biodistribution, Muscle",[1]; CDDP treated,1.09 ± 0.54
same,"60 min biodistribution, Muscle",[1]; Control,1.76 ± 1.33
same,"increase in tumour uptake (ratio to blood), treated over vehicle treated mice","[1]; RIF-1 tumour, CDDP 10 mg/kg single dose, 60 min post injection",~1.5 fold
same,"60 min biodistribution, S. Intestine",[1]; CDDP treated,11.08 ± 6.00
same,"60 min biodistribution, S. Intestine",[1]; Control,14.93 ± 12.68
same,"60 min biodistribution, Spleen",[1]; CDDP treated,1.85 ± 0.76
same,"60 min biodistribution, Spleen",[1]; Control,1.85 ± 0.19
same,"60 min biodistribution, Tumour",[1]; CDDP treated,1.31 ± 1.04
same,"60 min biodistribution, Tumour",[1]; Control,0.96 ± 0.10
same,increase in uptake in tumours of CPA-treated mice compared to the vehicle,"[2]; 38C13 xenograft, CPA 100 mg/kg 24 h",2 fold
same,"Biodistribution, Blood",[2]; CPA,1.00 ± 0.00 % ID Tumour/blood ratio
same,"Biodistribution, Blood",[2]; Vehicle,1.00 ± 0.00 % ID Tumour/blood ratio
same,"Biodistribution, Bone",[2]; CPA,0.93 ± 0.07 % ID Tumour/blood ratio
same,"Biodistribution, Bone",[2]; Vehicle,0.87 ± 0.10 % ID Tumour/blood ratio
same,"Biodistribution, Brain",[2]; CPA,0.23 ± 0.03 % ID Tumour/blood ratio
same,"Biodistribution, Brain",[2]; Vehicle,0.24 ± 0.02 % ID Tumour/blood ratio
same,"Biodistribution, Feces",[2]; CPA,8.46 ± 0.91 % ID Tumour/blood ratio
same,"Biodistribution, Feces",[2]; Vehicle,13.28 ± 2.37 % ID Tumour/blood ratio
same,"Biodistribution, Heart",[2]; CPA,1.43 ± 0.16 % ID Tumour/blood ratio
same,"Biodistribution, Heart",[2]; Vehicle,1.31 ± 0.10 % ID Tumour/blood ratio
same,"Biodistribution, Kidney",[2]; CPA,7.23 ± 0.47 % ID Tumour/blood ratio
same,"Biodistribution, Kidney",[2]; Vehicle,7.21 ± 0.33 % ID Tumour/blood ratio
same,"Biodistribution, L. Intestine",[2]; CPA,2.78 ± 0.64 % ID Tumour/blood ratio
same,"Biodistribution, L. Intestine",[2]; Vehicle,6.07 ± 0.62 % ID Tumour/blood ratio
same,"Biodistribution, Liver",[2]; CPA,14.17 ± 1.55 % ID Tumour/blood ratio
same,"Biodistribution, Liver",[2]; Vehicle,10.60 ± 0.75 % ID Tumour/blood ratio
same,"Biodistribution, Lung",[2]; CPA,5.49 ± 0.66
same,"Biodistribution, Lung",[2]; Vehicle,4.27 ± 0.13
same,"Biodistribution, Muscle",[2]; CPA,1.20 ± 0.07 % ID Tumour/blood ratio
same,"Biodistribution, Muscle",[2]; Vehicle,1.22 ± 0.07 % ID Tumour/blood ratio
same,"Biodistribution, Plasma","[2]; CPA 100 mg/kg 24 h, 38C13 xenograft",1.90 ± 0.09 % ID Tumour/blood ratio
same,"Biodistribution, Plasma","[2]; Vehicle, 38C13 xenograft",1.98 ± 0.23 % ID Tumour/blood ratio
same,"Biodistribution, S. Intestine",[2]; CPA,83.12 ± 70.19 % ID Tumour/blood ratio
same,"Biodistribution, S. Intestine",[2]; Vehicle,291.61 ± 28.68 % ID Tumour/blood ratio
same,"Biodistribution, Spleen",[2]; CPA,1.81 ± 0.37 % ID Tumour/blood ratio
same,"Biodistribution, Spleen",[2]; Vehicle,2.30 ± 0.38 % ID Tumour/blood ratio
same,"Biodistribution, Stomach",[2]; CPA,1.62 ± 0.19 % ID Tumour/blood ratio
same,"Biodistribution, Stomach",[2]; Vehicle,1.95 ± 0.00 % ID Tumour/blood ratio
same,"Biodistribution, Tumour",[2]; CPA,1.24 ± 0.11 % ID Tumour/blood ratio
same,"Biodistribution, Tumour",[2]; Vehicle,0.83 ± 0.10 % ID Tumour/blood ratio
same,"Biodistribution, Urine",[2]; CPA,43.64 ± 12.24 % ID Tumour/blood ratio
same,"Biodistribution, Urine",[2]; Vehicle,116.71 ± 19.47 % ID Tumour/blood ratio
